Measurements as given in US20020052316A1, “Bax-mediated apoptosis modulating reagents and methods” (priority 1998, published 2002).
Residues, ends and D or L forms follow the SMILES beside them. *: point of attachment. Cbz = O=C(OCc1ccccc1)*; CH2F = FC*

Columns and labels:
[1] = system: intact mitochondria isolated from rat heart; experiment: Mitochondrial protein targeting in vitro (35S-labelled reticulocyte lysate translation products, alkali-resistant insertion); format: biochemical; set-up: BAX targeting supported by apoptotic high speed cytosol / mitochondrial membrane insertion of BAX with additional cytochrome c: dose or concentration left out as unconfirmed
From the text: To examine targeting of BAX into mitochondria in vitro, we employed the ^35S-labelled transcription-translation product of BAX cDNA in rabbit reticulocyte lysate combined with intact mitochondria isolated from rat heart. This is a well documented system that faithfully reflects in vivo import of diverse mitochondrial proteins, including the insertion of integral proteins into the mitochondrial outer membrane (Li and Shore, Science 256:1815-1817, 1992; McBride et al., J. Cell Biol. 119:1451-1457, 1992).
The results of our investigation as to whether or not apoptotic cell extract supports BAX targeting to mitochondria in vitro are presented in FIGS. 3A-3D. Briefly, in the experiments were conducted as follows. In FIG. 3A, ^35S-labeled transcription-translation products of BAX cDNA in rabbit reticulocyte lysate (BAX and BAXΔART) were incubated with purified, intact mitochondria from rat heart in a standard protein import reaction supplemented with 1 mM dATP (FIG. 3A, lanes 3, 4, 6, and 7) or 1 mM dATP and […] apoptotic cytosol protein (Extract) (FIG. 3A, lanes 4 and 7), in a volume of […]. At the end of the reaction, mitochondria were recovered by centrifugation and the pellets analyzed by SDS PAGE and fluorography either directly or after extraction with […], pH 11.5 (Alkali) (FIG. 3A, lanes 5-7).
The heart of one male Sprague Dawley rat (approximately 250 grams) was placed in approximately 100 ml HIM buffer (0.2% w/v BSA, 200 mM mannitol, 70 mM sucrose, 10 mM HEPES-KOH, 1 mM EGTA, pH 7.5) on ice, squeezed several times to force out blood, and transferred to 7.5 ml HIM in a 15-ml corex tube. All subsequent steps were conducted at 4° C. The heart was homogenized with a Polytron homogenizer (Brinkmann Instruments Inc., Westbury, N.Y.) operating for 1 second at setting 6.5. Nuclei and unbroken cells were pelleted at 1800 rpm for 10 min. in a Sorvall SS34 rotor. The supernatant was centrifuged for 10 min. at 7000 rpm. The resulting pellet was resuspended in HIM (minus BSA), centrifuged at 1800 rpm and the mitochondria were collected at 7000 rpm. The mitochondrial pellet was resuspended in cMRM (250 mM sucrose, 10 mM HEPES-KOH, 1 mM ATP, 5 mM Na Succinate, 0.08 mM ADP, 2 mM K2HPO4, pH 7.5) at a concentration of 1 mg of mitochondrial protein per ml, and adjusted to 1 mM dithiothreitol just before use.
cDNAs were transcribed and translated in the presence of ^35S-methionine in a cell-free rabbit reticulocyte lysate system (Promega Corp., Madison, Wis.) according to the manufacturer's directions. For a standard mitochondrial protein import reaction, 5 μl of translation reaction was incubated with 20 μl of Buffer A (20 mM HEPES-KOH, 10 mM KCl, 2.5 mM MgCl2, 1 mM EDTA, 1 mM EGTA, 1 mM dithiothreitol, pH 7.5) and 25 μl mitochondria or mitoplasts in cMRM (1 mg protein / ml) at 30° C or 37° C. for 30 min. to 2 hours. The import reaction was then layered on a 500 μl cushion of 1×MRM (250 mM sucrose, 10 mM HEPES-KOH, pH 7.5) and centrifuged for 4 min. at top speed in a microfuge at 4° C. For alkali extraction, the mitochondrial pellet was resuspended (0.25 mg protein / ml) in freshly prepared 0.1 M Na2CO3, pH 11.5, and incubated for 30 min. on ice. The membranes were then pelleted in an airfuge (commercially available from Beckman Instruments Canada Inc., Montreal, PQ, Canada) operating for 10 min. at 30 psi. The pellet was analyzed by SDS-PAGE and fluorography. […]

[2] = system: caspases of KB apoptotic cell extract (24 kDa PARP cleavage product); experiment: Poly(ADP ribosyl) polymerase (PARP) cleavage by KB apoptotic cell extract; format: biochemical, human; set-up: ability of the extract to drive PARP cleavage: dose or concentration left out as unconfirmed
Protocol: In FIG. 3C, ^35S-labeled transcription-translation product of PARP cDNA in reticulocyte lysate (5% by volume) was incubated with (FIG. 3C, lanes 2 and 3) or without (FIG. 3C, lane 1) […] apoptotic cytosol protein in a total volume of […], in the presence (FIG. 3C, lane 3) or absence (FIG. 3C, lanes 1 and 2) of 1 mM dATP, and equivalent portions analyzed for the appearance of the 24 kDa cleavage product of poly(ADP ribosyl) polymerase (24 K PARP) by 12% SDS PAGE and fluorography.
Extract was prepared at 4° C. according to the procedure of Liu et al. (supra) with some minor modifications. Briefly, human KB epithelial cells were harvested in PBS containing 1.3 mM Na citrate and 0.6 mM EDTA. The cell pellet was washed in Buffer A/ext (50 mM PIPES, 50 mM KCl, 5 mM EGTA, 2 mM MgCl2, 1 mM dithiothreitol, 20 μM cytochalasin B, pH 7.4), then resuspended in an equal volume of Buffer A/ext. The cells were disrupted by 5 cycles of freeze-thaw interspersed by 5 strokes with a Wheaton glass homogenizer fitted with a B pestle, and centrifuged at […] for 1 hour in a Beckman Ti75 rotor. The resulting supernatant contained 10 mg protein / ml. […]

[3] = system: FL5.12 cells; experiment: BAX integration into mitochondrial membrane of FL5.12 cells after IL-3 withdrawal (alkali extraction, anti-BAX Western blot); format: cell-based; settings: FL5.12 cells deprived of IL-3 for 12 hours, 50 mM zVAD-fmk
Protocol: In the absence of a death signal during apoptosis of a cell, BAX is found free in the cytosol of the cell or is peripherally associated with endocellular membrane surfaces. We performed a Western blotting analysis of mitochondrial membranes from FL5.12 cells, immunoblotting anti-BAX antibodies (antibodies commercially available from, for example, Santa Cruz Biotech., Santa Cruz, Calif.; FIG. 1). Briefly, the mitochondrial fraction was prepared from FL5.12 cells maintained in IL-3 (FIG. 1, lanes 1, 2, 5, and 6) or deprived of IL-3 for 12 hours (FIG. 1, lanes 3, 4, 7, and 8), in the absence (FIG. 1, lanes 1, 3, 5, and 7) or presence (FIG. 1, lanes 2, 4, 6, and 8) of […] zVAD-fmk for 12 hours by centrifuging at 200,000×g for 45 min. to yield supernatant and pellet fractions (the pellet fraction contains the mitochondrial membranes). The mitochondrial fractions were analyzed either directly (FIG. 1, lanes 1-4) or following extraction with 0.1 M Na2CO3, pH 11.5 (FIG. 1, lanes 5-8).
Cells were collected, washed twice with phosphate buffered saline, suspended in 2 ml HIM buffer (0.2% w/v BSA, 200 mM mannitol, 70 mM sucrose, 10 mM HEPES-KOH, 1 mM EGTA, pH 7.5), and subjected to homogenization with a Polytron homogenizer (Brinkmann Instruments Inc., Westbury, N.Y.) for 4 bursts of 10 seconds each at a setting of 6.5. All subsequent steps were conducted at 4° C. […]

[4] = system: COS-7 and CHO cells; experiment: Immunofluorescence microscopy with anti-HA antibody of transfected cells; format: cell-based; settings: 24 hours
From the text: Thus, the enhanced cytotoxicity of HA-BAXΔART compared to HA-BAX in vivo correlates with inhibition of BAX membrane integration by the ART domain in vitro.

[5] = zVAD-fmk added before dATP and incubation at 37° C.
[6] = extract depleted of cytochrome c by immunoadsorption

With `COC(=O)C[C@H](NC(=O)[C@H](C)NC(=O)[C@@H](NC(=O)OCc1ccccc1)C(C)C)C(=O)CF` [zVAD-fmk, reference compound] (Cbz-Val-Ala-Asp(OMe)-CH2F) the “BAX targeting supported by apoptotic high speed cytosol” value [1, 5] was “effectively inhibit”, the “ability of the extract to drive PARP cleavage” value [2, 5] was “abolished” and the “BAX integration into mitochondrial membrane in response to IL-3 withdrawal” value ([3]; alkaline-resistant BAX) was “partly blocked”. The “recovery of total BAX associated with mitochondria” value ([3]; no alkali extraction) was “did not significantly influence”.

“BAX: full length murine BAX proapoptotic protein, translated in rabbit reticulocyte lysate” was tested, and the “mitochondrial targeting / membrane integration in vitro” value ([1]; absence of apoptotic cell extract, resistance to extraction at alkaline pH) was “failed to target mitochondria”.

For “HA-BAX: hemagglutinin epitope tagged BAX expressed by transfection”, the “cells expressing the HA-tagged protein” value [4] was 7.5%.

In the case of “cytochrome c: cytochrome c protein added to apoptotic cell extract or reticulocyte lysate”, the “mitochondrial membrane insertion of BAX with additional cytochrome c” value ([1]; cytochrome c added to apoptotic cytosol) is reported as “No improvement”, the “BAX targeting after add-back to cytochrome c depleted extract” value [1, 6] is reported as “re-instated” and the “BAX targeting with cytochrome c alone” value ([1]; reticulocyte lysate translation mixtures, no extract) is reported as “failed to stimulate”. The “PARP cleavage after add-back to cytochrome c depleted extract” value [2, 6] was “re-instated”.
